Columns and labels:
Type in all cases: functional
Adoxophyes orana = experiment: Larvicidal activity against second-instar larvae of Adoxophyes orana infested soybean seedling assessed as mortality at 5 ppm measured after 7 days; settings: 168 h
Plutella xylostella = experiment: Larvicidal activity against second-instar larvae of Plutella xylostella (diamondback moth) infested raddish seedling assessed as mortality at 3.3 ppm sprayed 2 hr prior to infestation measured after 4 days
Spodoptera litura [1] = experiment: Larvicidal activity against third-instar larvae of Spodoptera litura infested in soybean seedling assessed as mortality at 2 ppm sprayed 6 days prior to infestation measured after 5 days
Spodoptera litura [2] = experiment: Larvicidal activity against third-instar larvae of Spodoptera litura infested in soybean seedling assessed as mortality at 2 ppm sprayed 1 day prior to infestation measured after 5 days

| Compound | mortality at 5 ppm (Adoxophyes orana) [%] | mortality at 3.3 ppm (Plutella xylostella) [%] | mortality at 2 ppm (Spodoptera litura [1]) [%] | mortality at 2 ppm (Spodoptera litura [2]) [%] |
| --- | --- | --- | --- | --- |
| Cc1c(NC(=O)NC(=O)c2c(F)cccc2F)ccc(SC(F)(F)C(F)F)c1C | 100 | 100 | 100 | 100 |
| Cc1cc(S(=O)(=O)C(F)(F)C(F)F)c(C)cc1NC(=O)NC(=O)c1c(F)cccc1F | 95 | 100 | 100 | 100 |
| O=C(NC(=O)c1c(F)cccc1F)Nc1ccc(SC(F)(F)C(F)F)c(Cl)c1Cl | 100 | 100 | 100 | 100 |
| O=C(NC(=O)c1c(F)cccc1F)Nc1ccc([S+]([O-])C(F)(F)C(F)F)c(Cl)c1Cl (stereo not drawn) | 85 | 100 | 100 | 100 |
| O=C(NC(=O)c1c(F)cccc1F)Nc1ccc(S(=O)(=O)C(F)(F)C(F)F)c(Cl)c1Cl | 100 | 95 | 100 | 100 |
| Cc1c(NC(=O)NC(=O)c2c(F)cccc2F)ccc([S+]([O-])C(F)(F)C(F)F)c1C (stereo not drawn) | 90 | 100 | 100 | 100 |
| Cc1c(NC(=O)NC(=O)c2c(F)cccc2F)ccc(S(=O)(=O)C(F)(F)C(F)F)c1C | 100 | 100 | 100 | 100 |
| O=C(NC(=O)c1c(F)cccc1F)Nc1ccc(SC(F)(F)C(F)Cl)cc1 (stereo not drawn) | 40 | 100 | 45 | 65 |
| O=C(NC(=O)c1c(F)cccc1F)Nc1ccc(S(=O)(=O)C(F)(F)C(F)Cl)cc1 (stereo not drawn) | – | – | 0 | 0 |
| O=C(NC(=O)c1c(F)cccc1F)Nc1ccc(SC(F)(F)C(F)Cl)cc1F (stereo not drawn) | 100 | 100 | 100 | 100 |
| O=C(NC(=O)c1c(F)cccc1F)Nc1ccc([S+]([O-])C(F)(F)C(F)Cl)cc1F (stereo not drawn) | 100 | 100 | 100 | 100 |
| O=C(NC(=O)c1c(F)cccc1F)Nc1ccc(S(=O)(=O)C(F)(F)C(F)Cl)cc1F (stereo not drawn) | 100 | 100 | 100 | 100 |
| O=C(NC(=O)c1c(F)cccc1F)Nc1ccc(SC(F)(F)C(F)Cl)cc1Cl (stereo not drawn) | 100 | 100 | 100 | 100 |
| O=C(NC(=O)c1c(F)cccc1F)Nc1ccc([S+]([O-])C(F)(F)C(F)Cl)cc1Cl (stereo not drawn) | 95 | 95 | 90 | 100 |
| O=C(NC(=O)c1c(F)cccc1F)Nc1ccc(S(=O)(=O)C(F)(F)C(F)Cl)cc1Cl (stereo not drawn) | 100 | 95 | 100 | 100 |
| O=C(NC(=O)c1c(F)cccc1F)Nc1ccc(SC(F)(F)C(F)Cl)cc1Br (stereo not drawn) | 100 | 95 | 100 | 100 |
| O=C(NC(=O)c1c(F)cccc1F)Nc1ccc(S(=O)(=O)C(F)(F)C(F)Br)cc1Br (stereo not drawn) | 85 | 20 | 95 | 100 |
| Cc1cc(SC(F)(F)C(F)Cl)ccc1NC(=O)NC(=O)c1c(F)cccc1F (stereo not drawn) | 95 | 100 | 100 | 100 |
| Cc1cc([S+]([O-])C(F)(F)C(F)Cl)ccc1NC(=O)NC(=O)c1c(F)cccc1F (stereo not drawn) | 100 | 100 | 100 | 100 |
| Cc1cc(S(=O)(=O)C(F)(F)C(F)Cl)ccc1NC(=O)NC(=O)c1c(F)cccc1F (stereo not drawn) | 95 | 100 | 100 | 100 |
| O=C(NC(=O)c1c(F)cccc1F)Nc1cc(Cl)c(SC(F)(F)C(F)Cl)cc1Cl (stereo not drawn) | 100 | 100 | 100 | 100 |
| O=C(NC(=O)c1c(F)cccc1F)Nc1cc(Cl)c([S+]([O-])C(F)(F)C(F)Cl)cc1Cl (stereo not drawn) | 100 | 100 | 100 | 100 |
| O=C(NC(=O)c1c(F)cccc1F)Nc1cc(Cl)c(S(=O)(=O)C(F)(F)C(F)Cl)cc1Cl (stereo not drawn) | 100 | 100 | 95 | 100 |
| Cc1cc(SC(F)(F)C(F)Cl)c(C)cc1NC(=O)NC(=O)c1c(F)cccc1F (stereo not drawn) | 95 | 100 | 100 | 100 |

| Compound | mortality at 5 ppm (Adoxophyes orana) [%] | mortality at 3.3 ppm (Plutella xylostella) [%] | mortality at 2 ppm (Spodoptera litura [1]) [%] | mortality at 2 ppm (Spodoptera litura [2]) [%] |
| --- | --- | --- | --- | --- |
| Cc1cc([S+]([O-])C(F)(F)C(F)Cl)c(C)cc1NC(=O)NC(=O)c1c(F)cccc1F (stereo not drawn) | 100 | 100 | 100 | 100 |
| Cc1cc(S(=O)(=O)C(F)(F)C(F)Cl)c(C)cc1NC(=O)NC(=O)c1c(F)cccc1F (stereo not drawn) | 100 | 100 | 100 | 100 |
| O=C(NC(=O)c1c(F)cccc1F)Nc1ccc(SC(F)(F)C(F)Cl)c(Cl)c1Cl (stereo not drawn) | 100 | 95 | 100 | 100 |
| O=C(NC(=O)c1c(F)cccc1F)Nc1ccc([S+]([O-])C(F)(F)C(F)Cl)c(Cl)c1Cl (stereo not drawn) | 100 | 100 | 100 | 100 |
| O=C(NC(=O)c1c(F)cccc1F)Nc1ccc(S(=O)(=O)C(F)(F)C(F)Cl)c(Cl)c1Cl (stereo not drawn) | 100 | 100 | 100 | 100 |
| Cc1c(NC(=O)NC(=O)c2c(F)cccc2F)ccc(SC(F)(F)C(F)Cl)c1C (stereo not drawn) | 100 | 100 | 100 | 100 |
| Cc1c(NC(=O)NC(=O)c2c(F)cccc2F)ccc([S+]([O-])C(F)(F)C(F)Cl)c1C (stereo not drawn) | 100 | 100 | 100 | 100 |
| Cc1c(NC(=O)NC(=O)c2c(F)cccc2F)ccc(S(=O)(=O)C(F)(F)C(F)Cl)c1C (stereo not drawn) | 100 | 100 | 100 | 100 |
| O=C(NC(=O)c1c(F)cccc1F)Nc1ccc([S+]([O-])C(F)(F)C(F)F)cc1 (stereo not drawn) | – | 100 | 15 | 5 |
| O=C(NC(=O)c1c(F)cccc1F)Nc1ccc(S(=O)(=O)C(F)(F)C(F)F)cc1 | – | 90 | 0 | 0 |
| O=C(NC(=O)c1c(F)cccc1F)Nc1ccc(S(=O)(=O)C(F)(F)C(F)F)cc1Cl | 100 | 95 | 100 | 100 |
| O=C(NC(=O)c1c(F)cccc1F)Nc1ccc(SC(F)(F)C(F)F)cc1Br | 100 | 100 | 100 | 100 |
| O=C(NC(=O)c1c(F)cccc1F)Nc1ccc(S(=O)(=O)C(F)(F)C(F)F)cc1Br | 40 | 65 | 85 | 100 |
| Cc1cc(SC(F)(F)C(F)F)ccc1NC(=O)NC(=O)c1c(F)cccc1F | 100 | 100 | 100 | 95 |
| Cc1cc([S+]([O-])C(F)(F)C(F)F)ccc1NC(=O)NC(=O)c1c(F)cccc1F (stereo not drawn) | 100 | 100 | 100 | 100 |
| Cc1cc(S(=O)(=O)C(F)(F)C(F)F)ccc1NC(=O)NC(=O)c1c(F)cccc1F | 100 | 100 | 100 | 100 |
| O=C(NC(=O)c1c(F)cccc1F)Nc1ccc(S(=O)(=O)C(F)(F)C(F)F)c(Cl)c1 | 100 | 80 | 35 | 60 |
| Cc1cc(NC(=O)NC(=O)c2c(F)cccc2F)ccc1SC(F)(F)C(F)F | 0 | 100 | 100 | 100 |
| Cc1cc(NC(=O)NC(=O)c2c(F)cccc2F)ccc1S(=O)(=O)C(F)(F)C(F)F | 25 | 100 | 60 | 70 |
| O=C(NC(=O)c1c(F)cccc1F)Nc1cc(Cl)c(SC(F)(F)C(F)F)cc1Cl | 100 | 100 | 85 | 100 |
| O=C(NC(=O)c1c(F)cccc1F)Nc1cc(Cl)c([S+]([O-])C(F)(F)C(F)F)cc1Cl (stereo not drawn) | 75 | 100 | 100 | 100 |
| O=C(NC(=O)c1c(F)cccc1F)Nc1cc(Cl)c(S(=O)(=O)C(F)(F)C(F)F)cc1Cl | 90 | 95 | 95 | 100 |
| Cc1cc(SC(F)(F)C(F)F)c(C)cc1NC(=O)NC(=O)c1c(F)cccc1F | 90 | 85 | 100 | 100 |
| Cc1cc([S+]([O-])C(F)(F)C(F)F)c(C)cc1NC(=O)NC(=O)c1c(F)cccc1F (stereo not drawn) | 100 | 100 | 100 | 100 |

— ChEMBL document CHEMBL3045262, “Synthesis and Insecticidal Activity of Novel 1-Benzoyl-3-phenylurea Derivatives with Polyfluoroethylsulfenyl, -sulfonyl, and-sulfinyl Substituents” (1992)
